Assay results from patent publication US20210360924A1, “PLANT OR SEED COATING” (University of Southampton, priority 2017, published 2021).
“Also recorded” adds a separate entry of the source.

Experiments:
G. pallida J2s [1] = assay: G. pallida stylet thrusting assay; format: in vivo, Globodera pallida; conditions: for stimulation of stylet thrusting by the compound itself: J2s in compound alone; for exposure time at which maximal stylet response was seen / maximally effective concentration for stylet thrusting / effect on S-shaped posture and reduced movement induced by fluoxetine: in vivo; for effect on stylet response to fluoxetine / effect on stylet response to exogenous serotonin: 24 h presoak; for effect on stylet behaviour: concentrations up to 10 mM (data not shown)
Protocol: Stylet thrusting assays were conducted in 20 mM HEPES buffered ddH2O, with pH adjusted to 7.4 with NaOH. J2s were pipetted into 3 ml of the test solutions in 30 mm petri dishes and the number of stylet thrusts per minute was counted at various time points as stated in figure legends. A single movement of the stylet knob forwards and then backwards to its original position was counted as one stylet thrust. Control assays were conducted in the presence of either 20 mM HEPES alone or 20 mM HEPES with drug vehicle, as indicated in figure legends. All assays were conducted at room temperature (20-22° C.). All drug solutions were made up on the day of use. Each solution contained 0.01% bovine serum albumin to prevent worms from sticking to the Petri dish. Reserpine was dissolved in 100% acetone and then 1 in 200 dilution was made using Hepes buffer (pH 7.4). […] Final concentration 50 μM reserpine.
For experiments in which J2s were pre-treated with reserpine phosphate or CPA, the worms were pre-soaked in the drug solutions for 24 hours.

C. elegans SER-7 = target: T1, C. elegans SER-7 (Caenorhabditis elegans, UniProt Q22895); assay: Cut head pharyngeal pumping assay
T1 sequence (Q22895 1-435): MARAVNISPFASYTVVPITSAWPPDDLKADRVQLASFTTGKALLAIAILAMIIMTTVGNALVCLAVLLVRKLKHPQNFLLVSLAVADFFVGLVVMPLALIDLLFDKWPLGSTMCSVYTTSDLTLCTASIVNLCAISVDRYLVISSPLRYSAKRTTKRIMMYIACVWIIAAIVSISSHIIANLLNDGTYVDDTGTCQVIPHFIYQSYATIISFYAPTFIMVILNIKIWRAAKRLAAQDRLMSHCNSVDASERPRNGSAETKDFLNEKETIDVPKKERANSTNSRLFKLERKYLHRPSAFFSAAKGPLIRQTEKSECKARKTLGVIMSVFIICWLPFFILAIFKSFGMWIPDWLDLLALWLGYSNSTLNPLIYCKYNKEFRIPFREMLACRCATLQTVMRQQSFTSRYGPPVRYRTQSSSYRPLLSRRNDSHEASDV
Protocol: Additionally, an intact pharynx containing a terminal bulb was dissected from the rest of the worm with a razor blade. The pharyngeal preparation was placed into 3 ml of Dent's saline (with 0.1% BSA and the drugs 5-HT or methiothepin) in a 25 mm Petri dish. Pharyngeal pumps were scored visually, as for the intact worms, for 1 min. For controls, the pharyngeal pumping was scored in Dent's saline (0.1% BSA) without drugs with appropriate vehicle controls.

G. pallida J2s [2] = assay: Root invasion assay on potato hairy root cultures; format: in vivo, Globodera pallida; conditions: J2s pre-incubated 24 h with 100 μM compound
Protocol: J2s of G. pallida were first sterilised with 0.1% chlorhexidine digluconate, 0.5 mg/ml CTAB for 25 mins and washed three times with sterile 0.01% Tween-20. The J2s were then incubated with gentle agitation for 24 hours in water, 100 μM reserpine phosphate, 100 μM methiothepin, 100 μM CPA or 2 mM fluoxetine prior to inoculation of potato hairy root cultures with 25 J2s per infection point and 3 infection points per root system. Hairy root cultures were generated using Agrobacterium rhizogenes R1000 and multiplied. Individual root systems of equivalent size growing on 9 cm plates containing Murashige and Skoog basal medium (Duchefa, Suffolk, UK) with 2% sucrose were selected for inoculation. Nine to 11 replicate plates were used for each treatment or control. Roots were stained with acid fuchsin 13 days after infection and the number of nematodes in each root system counted. Each complete invasion assay was carried out on two separate occasions.

G. pallida = assay: Hatching of J2s from cysts/eggs; design: species or system Globodera pallida; conditions: in vivo
G. pallida SER-7 = G. pallida SER-7 (Globodera pallida, UniProt A0A183BS20, DEL280-286/G462A/H333Q/S454N/S6T/Y334H); assay: Cut head pharyngeal pumping assay, ser-7 (tm1325) expressing Gpa-ser-7; conditions: 100 nM; transgenics expressing G. pallida ser-7; 100 μM serotonin
C. elegans MOD-1 = assay: Thrashing paralysis assay (serotonin-induced paralysis), wild type; format: in vivo, Caenorhabditis elegans; conditions: wild type worms; 10 μM methiothepin; 33 mM serotonin
Protocol: (§1) For the methiothepin treatment group, 10 μM methiothepin was included in the wells of the microtitre plate. Wild type (N2), mod-1 (ok103), and the transgenic strains expressing gpa-mod-1 in mod-1 (ok103) were tested.

G. pallida MOD-1 = assay: Thrashing paralysis assay, mod-1 (ok103) expressing G. pallida mod-1; format: in vivo, Globodera pallida; conditions: worms expressing G. pallida mod-1; 10 μM methiothepin; 33 mM serotonin
Protocol: as §1

C. elegans TPH-1 = assay: Pharyngeal pumping of C. elegans on food with CPA; format: in vivo
Protocol: (§2) Experiments were performed on one day old age synchronised worms by picking L4 stage a day before the assay. Due to the translucent nature of the worm, pharyngeal pumping may be scored in the intact animals by counting the movements of the grinder in the terminal bulb: one complete up and down motion is counted as a single pharyngeal pump. The number of pharyngeal pumps was counted on E. coli OP50 in N2, in the mutants tph-1 (mg280), ser-7 (tm1325), cat-1 (ok411) and in mutants with ectopic expression of C. elegans (ce) or G. pallida (ppn) tph-1, ser-7 or cat-1 in all of the neurons (Psnb-1 promoter).
(§3) To test the effects of CPA (4-chloro-DL-phenylalanine methyl ester hydrochloride) on pharyngeal pumping one day old adult C. elegans for N2, tph-1 (mg280) and tph-1-1 (mg280) with ectopic expression of C. elegans (ce) or G. pallida (Gpa) tph-1 were placed onto E. coli OP50 containing CPA on NGM plates and the number of pharyngeal pumps on food per min was scored after 2 and 18 hours.

G. pallida TPH-1 = assay: Pharyngeal pumping on food with CPA, tph-1 (mg280) expressing G. pallida tph-1; format: in vivo, Globodera pallida; conditions: tph-1 mutant expressing G. pallida tph-1
Protocol: as §2, §3

G. pallida J2s [3] = assay: G. pallida dispersal (motility) assay on agar arena; format: in vivo, Globodera pallida; conditions: pre-incubation with 50 μM for 18 h
Protocol: Dispersal assays were performed on 5 cm plates filled with 10 ml of 2% agarose. […] For the reserpine assays worms were pre-soaked in the compound for 18 h. On the day of the assay 100 μl of potato root diffusate (PRD), ddH2O or drug solvents were spread onto the plates and the plates were sealed with the parafilm. The grid with six equal concentric circles was placed under the assay plates and the centre was marked with a dot. Around 50-100 G. pallida J2s or C. elegans L2 s were pipetted with 5 μl of ddH2O onto the centre (origin), the plate was re-sealed and the total number of worms was counted as soon as the liquid had absorbed. The number of J2s in each concentric circle was counted after 1, 2 and 24 hours.

C. elegans = assay: Pharyngeal pumping of intact C. elegans off food with fluoxetine; format: in vivo, Caenorhabditis elegans
Protocol: as §2
To test the effects of fluoxetine one day old C. elegans for N2, cat-1 (ok411) and cat-1 (ok411) with ectopic expression of C. elegans (ce) or G. pallida (Gpa) cat-1 were placed onto unseeded NGM plates containing fluoxetine and the number of pharyngeal pumps per min was scored after 1 h and 18 h.

Chain of G. pallida SER-7 (A0A183BS20 whole entry, stated change not applied): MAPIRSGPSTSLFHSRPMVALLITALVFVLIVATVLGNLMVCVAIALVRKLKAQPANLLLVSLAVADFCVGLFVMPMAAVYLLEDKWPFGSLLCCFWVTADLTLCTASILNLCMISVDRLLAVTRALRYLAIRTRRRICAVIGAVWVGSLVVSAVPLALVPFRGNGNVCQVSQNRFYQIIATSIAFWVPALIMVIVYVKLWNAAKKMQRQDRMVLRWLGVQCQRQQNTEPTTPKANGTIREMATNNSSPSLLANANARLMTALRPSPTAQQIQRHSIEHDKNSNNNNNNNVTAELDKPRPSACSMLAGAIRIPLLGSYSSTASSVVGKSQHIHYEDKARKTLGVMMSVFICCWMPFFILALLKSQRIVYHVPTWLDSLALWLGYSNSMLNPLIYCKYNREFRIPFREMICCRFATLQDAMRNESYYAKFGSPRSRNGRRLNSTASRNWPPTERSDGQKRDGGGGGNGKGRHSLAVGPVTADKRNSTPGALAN

NCCc1c[nH]c2ccc(O)cc12 [serotonin, 5-hydroxytryptamine]
stimulation of stylet thrusting by the compound itself (G. pallida J2s [1]): time-dependent and concentration-dependent stimulation
exposure time at which maximal stylet response was seen (G. pallida J2s [1]): 30 min
maximally effective concentration for stylet thrusting (G. pallida J2s [1]): 10 mM
concentration above which stylet concentration-response curve reached maximum plateau (G. pallida J2s [1]; response after 1 h): above 2 mM
EC50 (C. elegans SER-7; EC50, activation of pharyngeal pumping, transgenic psnb-1::Ce-ser-7a, cut head, 95% confidence 457 nM to 1.34 μM): 782 nM
EC50 (C. elegans SER-7; EC50, increase in pharyngeal pumping, wild type worms, cut head, 95% confidence 164 nM to 304 nM): 223 nM
pharyngeal pumping response (C. elegans SER-7; ser-7 (tm1325) mutants, cut head, up to 100 μM): did not respond

CSc1ccc2c(c1)C(N1CCN(C)CC1)Cc1ccccc1S2 (stereo not drawn) [methiothepin]
number of nematodes present in the roots 13 days after inoculation (root invasion) (G. pallida J2s [2]): blocked
antagonism of serotonin-induced stylet thrusting (G. pallida J2s [1]; G. pallida J2s): potent antagonist
effect on S-shaped posture and reduced movement induced by fluoxetine (G. pallida J2s [1]): blocked
emergence of J2s from eggs (hatching) (G. pallida): potently inhibited
inhibition of stimulatory effect of serotonin on pumping (C. elegans SER-7; 100 nM, transgenics expressing C. elegans ser-7, 100 μM serotonin): around 50%
inhibition of stimulatory effect of serotonin on pumping (G. pallida SER-7): around 50%
effect on mod-1 dependent serotonin-induced paralysis (C. elegans MOD-1): blocked
effect on mod-1 dependent serotonin-induced paralysis (G. pallida MOD-1): blocked

COC(=O)C(N)Cc1ccc(Cl)cc1.Cl (racemic) [CPA, 4-chloro-DL-phenylalanine methyl ester hydrochloride]
number of nematodes present in the roots 13 days after inoculation (root invasion) (G. pallida J2s [2]): significantly reduced
stylet thrusting in response to fluoxetine (G. pallida J2s [1]; 10 mM CPA overnight, 2 mM fluoxetine 30 min): reduced stylet thrusting
stylet thrusting in response to serotonin (G. pallida J2s [1]; 10 mM CPA overnight, 10 mM serotonin 30 min): maintained their response
inhibition of pharyngeal pumping (C. elegans TPH-1; tph-1 mutant): did not cause any further reduction
ability to inhibit pharyngeal pumping (C. elegans TPH-1; tph-1 mutant expressing C. elegans tph-1): restored
inhibition of pharyngeal pumping (C. elegans TPH-1; wild type C. elegans, CPA 10 mM): significantly inhibited
ability to inhibit pharyngeal pumping (G. pallida TPH-1): restored

COC(=O)[C@H]1[C@H]2C[C@@H]3c4[nH]c5cc(OC)ccc5c4CCN3C[C@H]2C[C@@H](OC(=O)c2cc(OC)c(OC)c(OC)c2)[C@@H]1OC [reserpine, (3β,16β,17α,18β,20α)-11,17-Dimethoxy-18-[(3,4,5-trimethoxybenzoyl)oxy]yohimban-16-carboxylic acid methyl ester]
number of nematodes present in the roots 13 days after inoculation (root invasion) (G. pallida J2s [2]): significantly decreased
dispersal from origin of agar arena (motility) (G. pallida J2s [3]): significant reduction
block of stimulatory effect of fluoxetine on stylet (G. pallida J2s [1]; 5 μM, 24 h soak, 2 mM fluoxetine): near-complete block
recovery of fluoxetine-induced stylet response after washing (G. pallida J2s [1]; 50 μM for 24 h, then water wash up to 22 hours): No recovery
block of stimulatory effect of fluoxetine on stylet (G. pallida J2s [1]; 50 μM, 24 h soak, 2 mM fluoxetine): near-complete block
exposure time at which reduction of fluoxetine-stimulated stylet activity was evident (G. pallida J2s [1]; 50 μM, 2 mM fluoxetine): 4 h
exposure time to full block of fluoxetine-stimulated stylet activity (G. pallida J2s [1]; 50 μM, 2 mM fluoxetine): 8 h
exposure time to full inhibition of fluoxetine-stimulated stylet activity (G. pallida J2s [1]; 50 μM, 2 mM fluoxetine 30 mins (FIG. 14B)): 8 h
effect on stylet response to fluoxetine (G. pallida J2s [1]; 2 mM fluoxetine 30 min): concentration-dependent inhibition
effect on stylet response to fluoxetine (G. pallida J2s [1]; 2 mM fluoxetine 30 min, listed as Reserpine): potently blocked
effect on stylet response to exogenous serotonin (G. pallida J2s [1]; 10 mM serotonin 30 min): no effect
effect on stylet response to exogenous serotonin (G. pallida J2s [1]; 10 mM serotonin 30 min, listed as Reserpine): but not the response to serotonin
lowest concentration giving significant reduction of fluoxetine-induced stylet activity (G. pallida J2s [1]; 24 h soak, 2 mM fluoxetine 30 min): 5 nM
effect on S-shaped posture and reduced movement induced by fluoxetine (G. pallida J2s [1]): blocked
independent stimulatory effect on stylet activity (G. pallida J2s [1]; reserpine alone): no independent stimulatory effect

NCCc1ccc(O)cc1 [tyramine]
effect on stylet behaviour (G. pallida J2s [1]): no effect

NCCc1ccc(O)c(O)c1 [Dopamine]
effect on stylet behaviour (G. pallida J2s [1]): no effect

CNCCC(Oc1ccc(C(F)(F)F)cc1)c1ccccc1 (stereo not drawn) [fluoxetine]
stimulation of stylet thrusting by the compound itself (G. pallida J2s [1]): time-dependent and concentration-dependent stimulation; also recorded: stimulatory effects
exposure time at which maximal stylet response was seen (G. pallida J2s [1]): 30 min
maximally effective concentration for stylet thrusting (G. pallida J2s [1]): 2 mM
shape of stylet concentration response curve (G. pallida J2s [1]; response after 1 h): bell-shaped
stimulation of pharyngeal pumping in the absence of food (C. elegans; 1 mM and 2 mM, or longer exposure at 500 μM): did not cause a stimulation
stimulation of pharyngeal pumping in the absence of food (C. elegans; C. elegans cat-1 mutant): not observed
exposure time of maximal stimulation of pharyngeal pumping (C. elegans; absence of food): 1 h
low dose stimulation of pharyngeal pumping (C. elegans; cat-1 mutant expressing ppn-cat-1 (G. pallida)): restored
low dose stimulation of pharyngeal pumping (C. elegans; cat-1 mutant expressing wild-type C. elegans cat-1): restored
stimulation of pharyngeal pumping in the absence of food (C. elegans; wild type, 5 to 500 μM): concentration-dependent

NCC(O)c1ccc(O)cc1 (stereo not drawn) [octopamine]
effect on stylet behaviour (G. pallida J2s [1]): no effect

CN(C)CCCN1c2ccccc2CCc2ccccc21 [imipramine]
stimulation of stylet thrusting by the compound itself (G. pallida J2s [1]): stimulatory effects
